Here are results for six compounds from PubChem BioAssay AID1259407 (Chemical Carcinogenesis Research Information System (CCRIS), 2018).

Active and inactive are the calls of the source. The rule behind the calls is not given here.

For this data set, the system named is CCRIS mutagenicity, Ames/micronucleus/aberration tests. Put plainly: CCRIS mutagenicity studies.
Setting [1] is: Test System: AMES SALMONELLA TYPHIMURIUM, Strain/Indicator: TA102, Metabolic Activation: NONE, Method: STANDARD PLATE.
The mark [2] stands for this setting: Test System: AMES SALMONELLA TYPHIMURIUM, Strain/Indicator: TA104, Metabolic Activation: NONE, Method: STANDARD PLATE.
Where [3] appears, read: Test System: AMES SALMONELLA TYPHIMURIUM, Strain/Indicator: TA1535, Metabolic Activation: NONE, Method: STANDARD PLATE.
The mark [4] stands for this setting: Test System: AMES SALMONELLA TYPHIMURIUM, Strain/Indicator: TA1535, Metabolic Activation: RAT, LIVER, S-9, AROCLOR 1254, Method: STANDARD PLATE.
The mark [5] stands for this setting: Test System: AMES SALMONELLA TYPHIMURIUM, Strain/Indicator: TA2638, Metabolic Activation: NONE, Method: STANDARD PLATE.
Where [6] appears, read: Test System: AMES SALMONELLA TYPHIMURIUM, Strain/Indicator: TA100, Metabolic Activation: NONE, Method: PREINCUBATION

`Nc1ncn([C@@H]2O[C@H](CO)[C@@H](O)[C@H]2O)c(=O)n1`: the mutagenic call by setting is: (End Point: IN VITRO CHROMOSOMAL ABERRATIONS, Test System: CHO CELLS (K1), Metabolic Activation: NONE) “active; positive”; (End Point: IN VITRO CHROMOSOMAL ABERRATIONS, Test System: CHO CELLS (XRS-5), Metabolic Activation: NONE) “active; positive”; (Test System: AMES SALMONELLA TYPHIMURIUM, Strain/Indicator: TA92, Metabolic Activation: NONE, Method: STANDARD PLATE) “active; positive”; (Test System: AMES SALMONELLA TYPHIMURIUM, Strain/Indicator: TA98, Metabolic Activation: NONE, Method: FLUCTUATION (MICROTITER)) “active; positive”; (Test System: AMES SALMONELLA TYPHIMURIUM, Strain/Indicator: TA100, Metabolic Activation: NONE, Method: STANDARD PLATE) “active; positive”; under setting [1], “active; positive”. In addition, the mutagenic call under setting [2] was “active; positive”; the mutagenic call under setting [3] was “active; positive”; the mutagenic call under setting [4] was “active; positive”; the mutagenic call (Test System: AMES SALMONELLA TYPHIMURIUM, Strain/Indicator: TA1537, Metabolic Activation: NONE, Method: FLUCTUATION (MICROTITER)) was “inactive; negative”; the mutagenic call under setting [5] was “active; positive”; the mutagenic call (Test System: AMES SALMONELLA TYPHIMURIUM, Strain/Indicator: TA2640, Metabolic Activation: NONE, Method: STANDARD PLATE) is “inactive; negative”. Moreover, the mutagenic call runs as follows: (Test System: AMES SALMONELLA TYPHIMURIUM, Strain/Indicator: TA7001, Metabolic Activation: NONE, Method: FLUCTUATION (MICROTITER)) “inactive; negative”; (Test System: AMES SALMONELLA TYPHIMURIUM, Strain/Indicator: TA7002, Metabolic Activation: NONE, Method: FLUCTUATION (MICROTITER)) “inactive; negative”; (Test System: AMES SALMONELLA TYPHIMURIUM, Strain/Indicator: TA7003, Metabolic Activation: NONE, Method: FLUCTUATION (MICROTITER)) “inactive; negative”; (Test System: AMES SALMONELLA TYPHIMURIUM, Strain/Indicator: TA7004, Metabolic Activation: NONE, Method: FLUCTUATION (MICROTITER)) “active; positive”; (Test System: AMES SALMONELLA TYPHIMURIUM, Strain/Indicator: TA7005, Metabolic Activation: NONE, Method: FLUCTUATION (MICROTITER)) “inactive; negative”; (Test System: AMES SALMONELLA TYPHIMURIUM, Strain/Indicator: TA7006, Metabolic Activation: NONE, Method: FLUCTUATION (MICROTITER)) “active; positive”. Also, the mutagenic call is “active; positive” (Test System: CHINESE HAMSTER OVARY, Strain/Indicator: CHO-AS52/6-THIOGUANINE, Metabolic Activation: NONE); “active; positive” (Test System: MOUSE LYMPHOMA, Strain/Indicator: L5178Y (TK+/TK-), Metabolic Activation: RAT, LIVER, HEAT-DENATURED S-9, Method: SUSPENSION/PLATE); “active; positive. reevaluation of results: inconclusive” (Test System: MOUSE LYMPHOMA, Strain/Indicator: L5178Y (TK+/TK-), Metabolic Activation: RAT, LIVER, S-9, AROCLOR 1254, Method: SUSPENSION/PLATE); “active; positive” (Test System: MOUSE LYMPHOMA, Strain/Indicator: L5178Y (TK+/TK-), Metabolic Activation: RAT, LIVER, S-9, Method: SUSPENSION/PLATE).

For the compound `C=C(C=O)CC`, the mutagenic call reads like this: under setting [6], “active; positive”; (Test System: AMES SALMONELLA TYPHIMURIUM, Strain/Indicator: TA100, Metabolic Activation: RAT LIVER S-9, AROCLOR 1254, Method: PREINCUBATION) “active; positive”; (Test System: AMES SALMONELLA TYPHIMURIUM, Strain/Indicator: TA100, Metabolic Activation: RAT, LIVER, S-9, AROCLOR 1254, Method: PREINCUBATION) “active; positive”.

For `O=C([O-])c1ccc2ccccc2c1.O=C([O-])c1ccc2ccccc2c1.[Pb+2]`, the mutagenic call (Test System: MOUSE LYMPHOMA, Strain/Indicator: L5178Y (TK+/TK-), Metabolic Activation: NONE, Method: SUSPENSION/PLATE) is “active; positive. reevaluation of results: equivocal”.

For `CC(=O)CC(=O)Nc1ccccc1C`, the mutagenic call is, setting by setting: under setting [1], “inactive; negative”; under setting [5], “inactive; negative”; (Test System: Ames Salmonella typhimurium, Strain/Indicator: TA98, Metabolic Activation: None, Method: Preincubation) “inactive; negative”; (Test System: Ames Salmonella typhimurium, Strain/Indicator: TA98, Metabolic Activation: Rat, Liver, S9, Sodium phenobarbital and 5,6-benzoflavone (10%), Method: Preincubation) “inactive; negative”; (Test System: Ames Salmonella typhimurium, Strain/Indicator: TA100, Metabolic Activation: None, Method: Preincubation) “inactive; negative”; (Test System: Ames Salmonella typhimurium, Strain/Indicator: TA100, Metabolic Activation: Rat, Liver, S9, Sodium phenobarbital and 5,6-benzoflavone (10%), Method: Preincubation) “inactive; negative”. Further, the mutagenic call by setting is: (Test System: Ames Salmonella typhimurium, Strain/Indicator: TA1535, Metabolic Activation: None, Method: Preincubation) “inactive; negative”; (Test System: Ames Salmonella typhimurium, Strain/Indicator: TA1535, Metabolic Activation: Rat, Liver, S9, Sodium phenobarbital and 5,6-benzoflavone (10%), Method: Preincubation) “inactive; negative”; (Test System: Ames Salmonella typhimurium, Strain/Indicator: TA1537, Metabolic Activation: None, Method: Preincubation) “inactive; negative”; (Test System: Ames Salmonella typhimurium, Strain/Indicator: TA1537, Metabolic Activation: Rat, Liver, S9, Sodium phenobarbital and 5,6-benzoflavone (10%), Method: Preincubation) “inactive; negative”; (Test System: E. COLI, Strain/Indicator: WP2 (PKM101), Metabolic Activation: NONE, Method: STANDARD PLATE) “inactive; negative”; (Test System: E. COLI, Strain/Indicator: WP2 UVRA (PKM101), Metabolic Activation: NONE, Method: STANDARD PLATE) “inactive; negative”. The mutagenic call reads like this: (Test System: E. coli, Strain/Indicator: WP2uvrA/pKM101, Metabolic Activation: None, Method: Preincubation) “inactive; negative”; (Test System: E. coli, Strain/Indicator: WP2uvrA/pKM101, Metabolic Activation: Rat, Liver, S9, Sodium phenobarbital and 5,6-benzoflavone (10%), Method: Preincubation) “inactive; negative”.

`CN(C)C(=S)SSC(=S)N(C)C`: the mutagenic call (End Point: IN VIVO MICRONUCLEUS, Test System: BONE MARROW POLYCHROMATIC ERYTHROCYTES, Species: MOUSE, Strain/Sex: SWISS/MALE, FEMALE, Route: IP 2X IN AQUEOUS SUSPENSION WITHIN 24 HR) was “inactive; negative”; the mutagenic call (Test System: AMES SALMONELLA TYPHIMURIUM, Strain/Indicator: TA98, Metabolic Activation: RAT, LIVER, S-9, AROCLOR 1254, Method: STANDARD PLATE) was “active; positive”; the mutagenic call (Test System: AMES SALMONELLA TYPHIMURIUM, Strain/Indicator: TA98, Metabolic Activation: S-9, Method: STANDARD PLATE) was “inactive; negative”; the mutagenic call (Test System: AMES SALMONELLA TYPHIMURIUM, Strain/Indicator: TA100, Metabolic Activation: RAT, LIVER, S-9, AROCLOR 1254, Method: STANDARD PLATE) is “active; positive”; the mutagenic call (Test System: AMES SALMONELLA TYPHIMURIUM, Strain/Indicator: TA100, Metabolic Activation: S-9, Method: STANDARD PLATE) was “active; positive”; the mutagenic call under setting [1] is “inactive; negative”. Besides, the mutagenic call was “inactive; negative” (Test System: AMES SALMONELLA TYPHIMURIUM, Strain/Indicator: TA102, Metabolic Activation: RAT, LIVER, S-9, AROCLOR 1254, Method: STANDARD PLATE); “inactive; negative” under setting [2]; “inactive; negative” (Test System: AMES SALMONELLA TYPHIMURIUM, Strain/Indicator: TA104, Metabolic Activation: RAT, LIVER, S-9, AROCLOR 1254, Method: STANDARD PLATE); “active; positive” under setting [3]; “active; positive” under setting [4]; “active; positive” (Test System: AMES SALMONELLA TYPHIMURIUM, Strain/Indicator: TA1538, Metabolic Activation: NONE, Method: STANDARD PLATE). Further, the mutagenic call is “active; positive” (Test System: AMES SALMONELLA TYPHIMURIUM, Strain/Indicator: TA1538, Metabolic Activation: RAT, LIVER, S-9, AROCLOR 1254, Method: STANDARD PLATE) and “active; positive” (Test System: CHINESE HAMSTER V-79, Strain/Indicator: V-79 (HGPRT)/6-THIOGUANINE, Metabolic Activation: NONE, Method: RESPREADING).

With `Cl[C@@H]1O[C@@H]1CBr`, the mutagenic call under setting [6] was “active; positive”.
